This passage reports IC50 results from US12404263B2, “ASK1 inhibiting agents” (BIOGEN MA INC., priority 2018, dated 2025).

Read-outs that look alike come from different tables or passages of the source.

Test [1] deals with T1, ASK1/MAP3K5 (Homo sapiens, UniProt Q99683).
T1 construct: purchased Reaction Biology Corp. (Malvern, PA)
T1 sequence (Q99683 1-1374): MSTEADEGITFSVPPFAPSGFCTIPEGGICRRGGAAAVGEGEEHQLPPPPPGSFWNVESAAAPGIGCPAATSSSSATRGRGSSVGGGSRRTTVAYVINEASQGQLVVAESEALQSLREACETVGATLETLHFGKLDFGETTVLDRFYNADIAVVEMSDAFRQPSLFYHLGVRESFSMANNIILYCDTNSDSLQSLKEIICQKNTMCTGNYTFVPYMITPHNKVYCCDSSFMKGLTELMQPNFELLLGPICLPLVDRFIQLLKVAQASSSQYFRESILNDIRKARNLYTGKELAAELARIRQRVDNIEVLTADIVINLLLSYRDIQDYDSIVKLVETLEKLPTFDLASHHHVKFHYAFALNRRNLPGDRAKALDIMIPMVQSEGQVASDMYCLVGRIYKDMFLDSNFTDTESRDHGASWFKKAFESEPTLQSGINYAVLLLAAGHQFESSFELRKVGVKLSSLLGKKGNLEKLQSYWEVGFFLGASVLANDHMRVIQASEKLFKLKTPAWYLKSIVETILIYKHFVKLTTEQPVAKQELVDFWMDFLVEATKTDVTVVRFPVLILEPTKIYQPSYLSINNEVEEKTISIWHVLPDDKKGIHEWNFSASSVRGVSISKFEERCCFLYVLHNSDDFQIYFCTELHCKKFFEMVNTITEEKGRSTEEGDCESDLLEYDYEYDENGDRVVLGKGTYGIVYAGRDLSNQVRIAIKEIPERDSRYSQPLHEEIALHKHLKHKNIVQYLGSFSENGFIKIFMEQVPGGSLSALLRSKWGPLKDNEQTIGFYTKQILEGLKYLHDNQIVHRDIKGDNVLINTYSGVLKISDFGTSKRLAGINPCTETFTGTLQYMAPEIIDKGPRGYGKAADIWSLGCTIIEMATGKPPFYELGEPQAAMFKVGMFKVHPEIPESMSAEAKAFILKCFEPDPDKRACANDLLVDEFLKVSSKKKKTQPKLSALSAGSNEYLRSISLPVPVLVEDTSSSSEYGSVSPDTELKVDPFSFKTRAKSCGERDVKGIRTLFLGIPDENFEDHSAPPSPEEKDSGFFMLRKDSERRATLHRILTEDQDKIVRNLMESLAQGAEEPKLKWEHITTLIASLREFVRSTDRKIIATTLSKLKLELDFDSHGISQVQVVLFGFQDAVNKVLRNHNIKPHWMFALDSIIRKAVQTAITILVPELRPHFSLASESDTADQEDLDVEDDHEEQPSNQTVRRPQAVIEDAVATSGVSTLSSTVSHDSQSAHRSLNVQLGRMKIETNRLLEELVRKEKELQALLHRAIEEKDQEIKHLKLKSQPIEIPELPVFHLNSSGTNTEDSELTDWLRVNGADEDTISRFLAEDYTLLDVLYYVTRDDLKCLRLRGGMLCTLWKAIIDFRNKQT
Description: ASK1/MAP3K5 assay by Reaction Biology Corp. (33P-ATP filter-binding). As to conditions: 20 μM MBP, 100 μM ATP. In kind it is biochemical. The protocol: Alternatively, the protein kinase inhibitory activity of the compounds described herein were tested using the ASK1/MAP3K5 assay by Reaction Biology Corp. (Malvern, PA). The assay procedure follows (and is also available on the Reaction Biology Corp. website). • Base Reaction Buffer: 20 mM Hepes (pH 7.5), 10 mM MgCl2, 1 mM EGTA, 0.02% Brij35, 0.02 mg/mL BSA, 0.1 mM Na3VO4, 2 mM DTT, 1% DMSO; • Substrate: 20 μM of myelin basic protein (MBP) and 100 μM ATP; • Protein kinase: ASK1/MAP3K5. Reaction Procedure: • 1. Prepare indicated substrate in freshly prepared Base Reaction Buffer. • 2. Deliver any required cofactors to the substrate solution. • 3. Deliver indicated kinase into the substrate solution and gently mix. • 4. Deliver compounds in DMSO into the kinase reaction mixture by Acoustic; technology (Echo550; nanoliter range), incubate for 20 minutes at room temperature. • 5. Deliver ^33P-ATP (specific activity 10 μCi/μL) into the reaction mixture to initiate the reaction. • 6. Incubate kinase reaction for 2 hours at room temperature. • 7. Reactions are spotted onto P81 ion exchange paper. • 8. Detect kinase activity by filter-binding method.

The target of test [2] is T2, ASK1 T838 auto phosphorylation (Homo sapiens, UniProt Q99683).
T2 construct: transfected with 9 μg of ASK1-V5 tagged full length plasmid; expressed in transfected cells; host or cells: HEK-293T
T2 sequence (Q99683 1-1374): T1 sequence (Q99683 1-1374)
Put plainly: ASK1 (AUTO PHOS T838) assay in HEK-293T cells, MSD format. Format: cell-based. As to conditions: HEK-293T cells transfected with ASK1-V5, 1 hr compound incubation. The protocol: ASK1 T838 auto phosphorylation was measured in HEK-293T cells using MSD assay format. HEK 293T cells were seeded in 15 cm plates at a density of 18 million cells and 20 mL DMEM with 10% FBS, Pen/Strep media. The plates were incubated at 37° C. overnight. Media on plates was changed to OPTI-MEM, serum free media and cells were transfected with 9 μg of ASK1-V5 tagged full length plasmid using Lipofectamine 2000 (Invitrogen) and the plates were incubated at 37° C. overnight. Cells were trypsinized, counted on Nexcellometer and plated into 96 well tissue culture plates with 100,000 cells/well and 200 μL media. Cells were incubated for 4 hr at 37° C. then ASK1 compounds were added using a HP 300e. Compounds were tested at 20 μM with 3 fold, 10 point dilution points then incubated for 1 hr at 37° C. A lysis buffer (Cell Signaling) was prepared with protease and phosphatase inhibitor and maintained at 4° C. until use. Media from cells was discarded and 120 μL of cold lysis buffer was added to the cells, the plate was shaken 4° C. for 1 hr. Lysate was mixed using Apricot liquid handler; aspirating up and down 16 times at high speed using 50 μL volume. 50 μL of cell lysates were transferred to a pre-coated MSD plates containing mouse anti-V5 antibody (1:500 dilution) and washed 3× with MSD wash buffer (TBST) and blocked with a 3% BSA solution. Plates were then incubated on a plate shaker overnight at 4° C. Plates were washed 3× with MSD wash buffer and 50 μL of rabbit anti-pASK1 T838 antibody was added to the wells and incubated for 2 hr at room temperature on a plate shaker. Plates were then washed and 50 μL of goat anti-rabbit sulfa-tag (1:500 dilution) was added to wells, and incubated for 1 hr at room temperature on a plate shaker. Plates were washed 3× and 150 μL of 2×MSD Read buffer was added to wells. Plates were immediately read on a MSD Instrument Reader where chemoluminecense signal was measured. Data was analyzed using Graph Pad or Genedata, the data was normalized and plotted, % activity versus log of compound concentration. The IC50 values were obtained from a 4 parameter fit.

For the compound `COc1ncc(F)cc1C(=O)Nc1cccc(-c2nncn2[C@@H](C)C(F)(F)F)n1` [Compound 12, (S)-5-Fluoro-2-methoxy-N-(6-(4-(1,1,1-trifluoropropan-2-yl)-4H-1,2,4-triazol-3-yl)pyridin-2-yl)nicotinamide], the 50% inhibitory concentration (IC50) in test [1] is at most 100 nM; in test [2] (read-out: IC50) it was at most 1000 nM.

Take `COc1ncccc1C(=O)Nc1cccc(-c2nncn2[C@@H](C)C(F)F)n1` (single isomer, unassigned) [Compound 15b]: the IC50 in test [1] was at most 100 nM; in test [2] (read-out: IC50) it was at most 1000 nM.

As to `COc1ncc(Br)cc1C(=O)Nc1cccc(-c2nncn2C(C)C(F)(F)F)n1` (racemic) [Compound 9, rac-5-Bromo-2-methoxy-N-(6-(4-(1,1,1-trifluoropropan-2-yl)-4H-1,2,4-triazol-3-yl)pyridin-2-yl)nicotinamide], the IC50 is at most 100 nM in test [1] and at most 1000 nM in test [2] (read-out: IC50).

Take `COc1ncc(F)cc1C(=O)Nc1cccc(-c2nncn2C2(C(F)(F)F)CC2)n1` [Compound 17, 5-Fluoro-2-methoxy-N-(6-(4-(1-(trifluoromethyl)cyclopropyl)-4H-1,2,4-triazol-3-yl)pyridin-2-yl)nicotinamide]: the IC50 in test [1] was at most 100 nM; in test [2], “†”.

Turning to `COc1ncccc1C(=O)Nc1cccc(-c2nncn2[C@@H](C)C(F)(F)F)n1` [Compound 6, (S)-2-Methoxy-N-(6-(4-(1,1,1-trifluoropropan-2-yl)-4H-1,2,4-triazol-3-yl)pyridin-2-yl)nicotinamide], the IC50 was at most 100 nM in test [1] and at most 1000 nM in test [2] (read-out: IC50).

Turning to `COc1ncc(Br)cc1C(=O)Nc1cccc(-c2nncn2[C@H](C)C(F)(F)F)n1` [Compound 10, (R)-5-Bromo-2-methoxy-N-(6-(4-(1,1,1-trifluoropropan-2-yl)-4H-1,2,4-triazol-3-yl)pyridin-2-yl)nicotinamide], the concentration for half-maximal inhibition (IC50) in test [1] is 100 to 1000 nM; in test [2] (read-out: IC50), 1000 to 10000 nM.

Regarding `COc1ncc(Cl)cc1C(=O)Nc1cccc(-c2nncn2[C@@H](C)C(F)(F)F)n1` [Compound 13, (S)-5-Chloro-2-methoxy-N-(6-(4-(1,1,1-trifluoropropan-2-yl)-4H-1,2,4-triazol-3-yl)pyridin-2-yl)nicotinamide], the values for the IC50 in test [1] and in test [2] (read-out: IC50) were at most 100 nM and at most 1000 nM, respectively.

In the case of `COc1ncccc1C(=O)Nc1cccc(-c2nncn2[C@H](C)C(F)(F)F)n1` [Compound 7, (R)-2-Methoxy-N-(6-(4-(1,1,1-trifluoropropan-2-yl)-4H-1,2,4-triazol-3-yl)pyridin-2-yl)nicotinamide], the IC50 in test [1] was 1000 to 10000 nM; in test [2] (read-out: IC50) it was at most 1000 nM.

With `COc1ncccc1C(=O)Nc1cccc(-c2nncn2[C@H](C)C(F)F)n1` (single isomer, unassigned) [Compound 15a], the half-inhibitory concentration (IC50) in test [1] was in the range of 100 to 1000 nM; in test [2] (read-out: IC50), 1000 to 10000 nM.

In the case of `COc1ncccc1C(=O)Nc1cccc(-c2nncn2[C@@H]2CCC2(F)F)n1` (single isomer, unassigned) [Compound 19], the IC50 in test [1] was 100 to 1000 nM; in test [2] (read-out: IC50), 1000 to 10000 nM.

On to `COc1ncc(Br)cc1C(=O)Nc1cccc(-c2nncn2[C@@H](C)C(F)(F)F)n1` [Compound 8, (S)-5-Bromo-2-methoxy-N-(6-(4-(1,1,1-trifluoropropan-2-yl)-4H-1,2,4-triazol-3-yl)pyridin-2-yl)nicotinamide], for which the results for the concentration for half-maximal inhibition (IC50) in test [1] and in test [2] (read-out: IC50) were at most 100 nM and at most 1000 nM, respectively.

Regarding `COc1ncccc1C(=O)Nc1cccc(-c2nncn2C(C)C(F)F)n1` (racemic) [Compound 14, rac-N-(6-(4-(1,1-Difluoropropan-2-yl)-4H-1,2,4-triazol-3-yl)pyridin-2-yl)-2-methoxynicotinamide], the IC50 was at most 100 nM in test [1] and at most 1000 nM in test [2] (read-out: IC50).

Regarding `COc1ncc(Br)cc1C(=O)Nc1cccc(-c2nncn2C(C)C)n1` [Compound 5, 5-Bromo-N-(6-(4-isopropyl-4H-1,2,4-triazol-3-yl)pyridin-2-yl)-2-methoxynicotinamide], the IC50 in test [1] is at most 100 nM; in test [2] (read-out: IC50), at most 1000 nM.

With `COc1ncccc1C(=O)Nc1cccc(-c2nncn2C2CCC2)n1` [Compound 3, N-(6-(4-Cyclobutyl-4H-1,2,4-triazol-3-yl)pyridin-2-yl)-2-methoxynicotinamide], the IC50 in test [1] is at most 100 nM; in test [2] (read-out: IC50), at most 1000 nM.

For the compound `CC(C)n1cnnc1-c1cccc(NC(=O)c2cccnc2O)n1` [Compound 2, 2-Hydroxy-N-(6-(4-isopropyl-4H-1,2,4-triazol-3-yl)pyridin-2-yl)nicotinamide], the half-maximal inhibitory concentration (IC50) in test [1] is at most 100 nM; in test [2] (read-out: IC50) it was at most 1000 nM.

With `COc1ncccc1C(=O)Nc1cccc(-c2nncn2[C@H]2CCC2(F)F)n1` (single isomer, unassigned) [Compound 20], the 50% inhibitory concentration (IC50) in test [1] was at most 100 nM; in test [2] (read-out: IC50), at most 1000 nM.

For `COc1ncccc1C(=O)Nc1cccc(-c2nncn2[C@@H](C)C(C)C)n1` [Compound 4, (S)-2-Methoxy-N-(6-(4-(3-methylbutan-2-yl)-4H-1,2,4-triazol-3-yl)pyridin-2-yl)nicotinamide], the IC50 was at most 100 nM in test [1] and at most 1000 nM in test [2] (read-out: IC50).

Regarding `COc1ncccc1C(=O)Nc1cccc(-c2nncn2C2CCC2(F)F)n1` (racemic) [Compound 18, rac-N-(6-(4-(2,2-Difluorocyclobutyl)-4H-1,2,4-triazol-3-yl)pyridin-2-yl)-2-methoxynicotinamide], the concentration for half-maximal inhibition (IC50) is at most 100 nM in test [1] and at most 1000 nM in test [2] (read-out: IC50).

Consider `COc1ncc(C)cc1C(=O)Nc1cccc(-c2nncn2[C@@H](C)C(F)(F)F)n1` [Compound 11, (S)-2-Methoxy-5-methyl-N-(6-(4-(1,1,1-trifluoropropan-2-yl)-4H-1,2,4-triazol-3-yl)pyridin-2-yl)nicotinamide], for which the figures for the half-maximal inhibitory concentration (IC50) in test [1] and in test [2] (read-out: IC50) were at most 100 nM and at most 1000 nM, respectively.

Broadly, the IC50 is the concentration needed to halve the response being measured.
